We go through 23 compounds from ChEMBL document CHEMBL1152186, “Design, synthesis, and evaluation of orally active inhibitors of plasminogen activator inhibitor-1 (PAI-1) production” (Bioorg Med Chem Lett, 2008).

Series [1] in a line: Metabolic stability in dog blood after 1 hr. It counts as ADME, tissue-based, Canis lupus familiaris. The following applies: read-out: Stability.
Series [2] in a line: Solubility in water. The series is classed as physicochemical.
For series [3], the species on record is Bos taurus. As to the kind of experiment: Inhibition of LPS-induced PAI1 production in BCAEC at 1 uM after 24 hrs relative to T-686. The series is classed as functional.
The species named for series [4] is Bos taurus. As to the kind of experiment: Inhibition of LPS-induced PAI1 production in BCAEC at 10 uM after 24 hrs relative to T-686. It counts as functional.
Series [5] concerns Rattus norvegicus. As to the kind of experiment: Antithrombotic activity in rat venous thrombosis model assessed as decrease in thrombus weight at 3 mg/kg, po administered for 3 days after 2 hrs last dose. The series is classed as functional. Also noted: scale not given: the % may be the effect or the level left.
Series [6] relates to Rattus norvegicus. The series can be described thus: Toxicity in rat assessed as decrease in locomotor activity at 300 mg/kg, po. It counts as organism-based. More on the design: dose 300 mg/kg, route oral. As to conditions: in vivo.

Structures are written as SMILES. In brackets after ≈: the same amount, converted by molar mass.

For `COC(=O)C(=C(/C)c1cc(OC)cc(OC)c1)/C(=C\c1ccccc1)C(=O)Nc1cccnc1`, in series [1], the remaining at 1 h was 83%. The solubility in series [2] was above 2000 µg/mL. Moreover, the Activity in the series listed under Bos taurus [3] was 2.2.

With `COC(=O)C(=C(/C)c1cc(OC)c(OC)c(OC)c1)/C(=C\c1ccccc1)C(N)=O`, the remaining at 1 h in series [1] was 96%. Besides, the Activity was determined as 1 in the series filed under Bos taurus [4] and 1.5 in the series filed under Bos taurus [3]. The solubility in series [2] stood at 106 µg/mL (≈ 0.258 mM).

As to `COC(=O)C(=C(/C)c1cc(OC)cc(OC)c1)/C(=C\c1ccccc1)C(=O)Nn1cnnc1`, the Activity in the series listed under Bos taurus [3] was 0.6.

Regarding `COC(=O)C(=C/c1cc(OC)c(OC)c(OC)c1)/C(C(N)=O)=C(/C)c1ccccc1`, the Activity in the series filed under Bos taurus [4] amounted to 0.2.

On to `COC(=O)C(=C/c1cc(OC)c(OC)c(OC)c1)/C(C(N)=O)=C(\C)c1ccccc1`, for which the Activity in the series filed under Bos taurus [4] was 0.3.

For the compound `COC(=O)C(=C(/C)c1cc(OC)cc(OC)c1)/C(=C\c1ccccc1)C(=O)NC1CCN(C)CC1`, the Activity in the series listed under Bos taurus [3] worked out at 0.8.

In the series listed under Bos taurus [3], `COC(=O)C(=C(/C)c1cc(OC)cc(OC)c1)/C(=C\c1cccnc1)C(N)=O` showed an Activity of 0.8.

`COC(=O)C(=C(/C)c1cc(OC)cc(OC)c1)/C(=C\c1ccccc1)C(=O)O` registered an Activity in the series filed under Bos taurus [3] of 0.4.

`COC(=O)C(=C(/C)c1cc(OC)cc(OC)c1)/C(=C\c1ccccc1)C(=O)Nc1cccc2cccnc12`: in the series listed under Bos taurus [3], the Activity came to 0.4.

As for `COC(=O)C(=C\c1cc(OC)c(OC)c(OC)c1)/C(=C\c1ccccc1)C(N)=O`, the remaining at 1 h in series [1] was 75%. The Activity in the series filed under Bos taurus [4] is 0.7.

Compound `COC(=O)C(=C(/C)c1cc(OC)cc(OC)c1)/C(=C\c1ccccc1)C(=O)Nc1ncccn1` gave an Activity in the series listed under Bos taurus [3] of 0.1.

Regarding `COc1cc(/C=C2/C(=O)NC(=O)/C2=C/c2ccccc2)cc(OC)c1OC`, the remaining at 1 h in series [1] was 79%. Also, the Activity in the series filed under Bos taurus [4] and in the series listed under Bos taurus [3] was 1 in each case. The compound further registered a solubility in series [2] of 9 µg/mL (≈ 0.0246 mM).

On to `COC(=O)C(=C(/C)c1cc(OC)cc(OC)c1)/C(=C\c1ccccc1)C(=O)Nc1nnn[nH]1`, for which, in the series listed under Bos taurus [3], the Activity amounted to 0.1.

With `COC(=O)C(=C/c1cc(OC)c(OC)c(OC)c1)/C(=C\c1ccccc1)C(N)=O`, the Activity in the series listed under Bos taurus [4] worked out at 0.9.

In the series listed under Bos taurus [4], `COC(=O)C(/C(=C\c1ccccc1)C(N)=O)=C(\C)c1cc(OC)c(OC)c(OC)c1` had an Activity of 0.3.

With `COC(=O)C(=C(/C)c1cc(OC)cc(OC)c1)/C(=C\c1ccncc1)C(N)=O`, in series [1], the remaining at 1 h was 88%. Further, the solubility in series [2] was above 4000 µg/mL. In the series listed under Bos taurus [3], this compound yielded an Activity of 1.5.

With `COC(=O)C(=C(/C)c1cc(OC)cc(OC)c1)/C(=C\c1ccccc1)C(=O)NCc1ccncc1`, in series [1], the remaining at 1 h came to 76%. This compound registered a solubility in series [2] above 2000 µg/mL. Further, in the series filed under Bos taurus [3], the Activity is 2.1.

Consider `COC(=O)C(=C(/C)c1cc(OC)cc(OC)c1)/C(=C\c1ccccc1)C(=O)NN1CC[N+](C)([O-])CC1`, for which, in the series filed under Bos taurus [3], the Activity is 0.2.

For the compound `COC(=O)C(=C(/C)c1cc(OC)cc(OC)c1)/C(=C\c1ccccc1)C(=O)Nc1ccncc1`, the remaining at 1 h in series [1] worked out at 87%. Also, the Activity in the series with Rattus norvegicus [5] was 58%; with Rattus norvegicus [6] it was “Toxic”; in the series filed under Bos taurus [3] it was 1.8. The same compound yielded a solubility in series [2] above 3000 µg/mL.

Regarding `COC(=O)C(=C(/C)c1cc(OC)cc(OC)c1)/C(=C\c1ccccc1)C(=O)N1CCN(C)CC1`, in the series filed under Bos taurus [3], the Activity was determined as 0.3.

In turn, `COC(=O)C(=C/c1cc(OC)c(OC)c(OC)c1)/C(=C/c1ccccc1)C(N)=O` registered an Activity in the series listed under Bos taurus [4] of 0.7.

Take `COC(=O)C(=C(/C)c1cc(OC)cc(OC)c1)/C(=C\c1ccccc1)C(=O)NCc1cccnc1`: in series [1], the remaining at 1 h was determined as 87%. Besides, the Activity with Rattus norvegicus [5] was 53%; in the series on Rattus norvegicus [6] it was “Toxic”; in the series filed under Bos taurus [3], 1.3. The solubility in series [2] is 1600 µg/mL (≈ 3.39 mM).

As to `COC(=O)C(=C(/C)c1cc(OC)cc(OC)c1)/C(=C\c1ccccc1)C(=O)NN1CCN(C)CC1`, the remaining at 1 h in series [1] stood at 89%. Further, the values for the Activity in the series with Rattus norvegicus [5], in the series with Rattus norvegicus [6] and in the series filed under Bos taurus [3] were 50%, “Non-toxic” and 1.5, respectively. Further, the solubility in series [2] was above 4000 µg/mL.

A word on the solubility: it is the dissolved amount per volume that the medium holds.
